Data reported in paper PMC5028351, “Natural flavonoids silymarin and quercetin improve the brain distribution of co-administered P-gp substrate drugs” (SpringerPlus, 2016).
One block for each molecule: values may come before it.

Key:
[1] = biological target: T1, P-gp (Homo sapiens, UniProt P08183); experiment: in vitro; conditions: Caco-2
Experimental: (§1) Caco-2 cells were seeded in transwell poly carbonate inserts (6 well, 0.4 µm pore size, Corning co-star Co.) at 70,000 cells per insert on the day of seeding. Cells were cultured in DMEM supplemented with 10 % fetal bovine serum and 1 % non essential amino acids (Gibco). All the cells were incubated at 37 °C in a humidified atmosphere with 5 % CO2 and 95 % air. For uptake studies, Caco-2 cells were seeded on to 0.7 cm^2 dishes at a density of approximately 70,000 cells per dish and used for experiment.

[2] = tested on: Caco-2; conditions: ref Collett et al. 2004; cited from earlier work
[3] = biological target: T1, P-gp; conditions: digoxin 10 µM alone
Experimental: as §1

[4] = tested on: P-gp; experiment: In vivo P-gp inhibition study: plasma and brain pharmacokinetics of i.v. quinidine in mice with and without inhibitor pre-treatment; conditions: for Effect of pre-treatment on plasma profile of quinidine: quinidine 5 mg/kg i.v., inhibitor i.v. 0.5 h pre-treatment; for AUC(0-inf) / AUC(0-t) / Cmax / Tmax: male, C57, mouse, iv, 5 mg/kg
Experimental: Male C57 mice weighing 30–35 g and of 6–8 weeks old were taken and the animal experiments were conducted in the animal research facility of Syngene International limited, Bengaluru, India. […] Animal study protocols were approved by the Syngene International organisational animal ethics committee, Bengaluru, India.
Dose volumes (5 mL/kg) of drugs were administered by i.v. route via tail vein injection. […]
Mice were divided into three groups (n = 3–4). […] Blood and brain samples were collected at 0.5, 1, 3, 5 and 7 h post dose of probe substrate. Blood was collected from mice under mild anaesthesia via tail vein and collected blood was centrifuged at 5000 rpm to separate plasma.
After sacrificing the mice at different time points, brain was collected homogenised at 5× concentration with phosphate buffered saline using Bullet blender. Fifty µL of brain homogenate or plasma and 200 µL of internal standard (IS) in vehicle (70 % acetonitrile and 30 % water) were mixed in a 96-well hydrophilic solvinert plate. The acetonitrile mixtures were vortexed and centrifuged at 10,000 rpm for 10 min. Supernatant was collected in a 96 well plate and analysed by liquid chromatography with mass spectroscopy (LC-MS, QTRAP ABSCIEX API 4000).
Analysis was carried out using 4000 QTRAP LC/MS/MS system with triple Quadruple mass spectrometer (AB SCIEX) equipped with an electron spray ionisation (ESI). The mass spectrometer was operated in the ESI positive ion mode and detection of ions were performed in the multiple reaction monitoring (MRM) mode.

[5] = tested on: P-gp; design: method as in O’Brien et al. 2013; conditions: P-gp inhibition using cyclosporin and verapamil; ref O’Brien et al. 2013; cited from earlier work
[6] = tested on: P-gp; design: method as in Van Asperen et al. 1996; conditions: ref Van Asperen et al. 1996; cited from earlier work

T1 sequence (P08183 whole entry): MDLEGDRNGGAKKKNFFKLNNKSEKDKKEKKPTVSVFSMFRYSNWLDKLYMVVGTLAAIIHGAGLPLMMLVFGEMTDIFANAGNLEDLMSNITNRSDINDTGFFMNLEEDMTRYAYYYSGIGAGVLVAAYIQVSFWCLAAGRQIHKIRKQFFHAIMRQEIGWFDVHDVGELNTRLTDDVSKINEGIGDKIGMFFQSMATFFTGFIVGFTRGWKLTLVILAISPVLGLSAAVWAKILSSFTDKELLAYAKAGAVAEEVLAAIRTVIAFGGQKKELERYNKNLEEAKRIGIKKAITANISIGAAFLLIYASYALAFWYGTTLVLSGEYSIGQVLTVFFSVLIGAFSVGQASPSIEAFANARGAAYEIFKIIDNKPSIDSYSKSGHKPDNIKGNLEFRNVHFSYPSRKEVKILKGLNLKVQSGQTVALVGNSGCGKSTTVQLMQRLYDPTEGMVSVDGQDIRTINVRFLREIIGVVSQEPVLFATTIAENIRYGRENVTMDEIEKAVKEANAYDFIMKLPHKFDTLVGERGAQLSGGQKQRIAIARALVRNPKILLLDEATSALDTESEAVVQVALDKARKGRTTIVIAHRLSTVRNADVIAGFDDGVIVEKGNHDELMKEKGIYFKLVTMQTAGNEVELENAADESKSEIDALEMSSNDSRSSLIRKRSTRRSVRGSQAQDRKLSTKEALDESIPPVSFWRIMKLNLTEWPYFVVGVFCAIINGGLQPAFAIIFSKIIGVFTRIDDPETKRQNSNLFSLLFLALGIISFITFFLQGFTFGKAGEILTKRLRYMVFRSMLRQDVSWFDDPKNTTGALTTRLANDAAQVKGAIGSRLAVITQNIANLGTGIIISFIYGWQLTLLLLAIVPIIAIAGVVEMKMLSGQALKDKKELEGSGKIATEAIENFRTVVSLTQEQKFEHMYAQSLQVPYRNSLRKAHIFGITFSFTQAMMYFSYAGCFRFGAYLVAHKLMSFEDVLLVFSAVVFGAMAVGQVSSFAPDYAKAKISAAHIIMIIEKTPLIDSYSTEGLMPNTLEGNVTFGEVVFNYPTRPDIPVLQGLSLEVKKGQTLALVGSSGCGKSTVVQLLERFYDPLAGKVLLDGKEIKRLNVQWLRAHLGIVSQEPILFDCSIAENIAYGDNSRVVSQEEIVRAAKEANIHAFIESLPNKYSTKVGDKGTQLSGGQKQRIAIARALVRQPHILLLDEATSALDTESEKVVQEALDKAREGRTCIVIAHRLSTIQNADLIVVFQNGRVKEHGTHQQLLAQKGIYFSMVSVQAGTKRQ

Papp A→B at 10 µM [1]: 0.0518 ×10⁻⁶ cm/s | Papp B→A at 10 µM [1]: 1.8 ×10⁻⁶ cm/s | AP-BL transport of digoxin ([3]; Caco-2 (Table 3)): 5.18 10^−8 cm/s | BL-AP transport of digoxin ([3]; Caco-2 (Table 3)): 1.80 ×10⁻⁶ cm/s | AP-BL transport (PappA–B) of digoxin ([3]; Caco-2 monolayers): 0.0518 ×10⁻⁶ cm/s | BL-AP transport (PappB–A) of digoxin ([3]; Caco-2 monolayers): 1.8 ×10⁻⁶ cm/s
SMILES: C[C@H]1O[C@@H](O[C@H]2[C@@H](O)C[C@H](O[C@H]3[C@@H](O)C[C@H](O[C@H]4CC[C@@]5(C)[C@H](CC[C@@H]6[C@@H]5C[C@@H](O)[C@]5(C)[C@@H](C7=CC(=O)OC7)CC[C@]65O)C4)O[C@@H]3C)O[C@@H]2C)C[C@H](O)[C@@H]1O [Digoxin]
Caco-2 Papp [2]: 1.1 ×10⁻⁶ cm/s

SMILES: COc1cc2c(cc1OC)CN(CCc1ccc(NC(=O)c3cccc4c(=O)c5cccc(OC)c5[nH]c34)cc1)CC2 [Elacridar]
Effect of pre-treatment on plasma profile of quinidine ([4]; mice): no significant difference

SMILES: CN(C)CCC[C@@]1(c2ccc(F)cc2)OCc2cc(C#N)ccc21 [Escitalopram]
Increase in brain concentration [5]: threefold

SMILES: O=c1c(O)c(-c2ccc(O)c(O)c2)oc2cc(O)cc(O)c12 [Quercetin]
Increase in (AUC) 0–7h B/P of quinidine ([4]; mice, inhibitor pre-treatment): twofold | Effect of pre-treatment on plasma profile of quinidine ([4]; mice): no significant difference

AUC(0-inf) ([4]; brain): 251 ng·h/mL | AUC(0-t) ([4]; brain): 211 ng·h/mL | Cmax ([4]; brain): 115 ng/mL | Tmax ([4]; brain): 48 min | AUC(0-inf) ([4]; plasma): 513 ng·h/mL | AUC(0-t) ([4]; plasma): 496 ng·h/mL | Cmax ([4]; plasma): 209 ng/mL | Tmax ([4]; plasma): 39.6 min
SMILES: C=C[C@H]1C[N@@]2CC[C@H]1C[C@@H]2[C@@H](O)c1ccnc2ccc(OC)cc12 [Quinidine]

SMILES: CC[C@]1(O)C[C@@H]2CN(CCc3c([nH]c4ccccc34)[C@@](C(=O)OC)(c3cc4c(cc3OC)N(C)[C@H]3[C@@](O)(C(=O)OC)[C@H](OC(C)=O)[C@]5(CC)C=CCN6CC[C@]43[C@@H]65)C2)C1 [vinblastine]
Penetration into the brain, P-gp knockout mice compared with wild type control [6]: 7–46 folds
